In this assay the test system is NL-RLuc virus. Description: Inhibition of HIV replication (NL-RLuc reporter virus in MT-2 cells, luciferase readout). The class given is cell-based. An excerpt:
Inhibition of HIV replication: A recombinant NL-RLuc proviral clone was constructed in which a section of the nef gene from NL4-3 was replaced with the Renilla Luciferase gene. This virus is fully infectious and can undergo multiple cycles of replication in cell culture. In addition, the luciferous reporter provides a simple and easy method for quantitating the extent of virus growth and consequently, the antiviral activity of test compounds. The plasmid pNLRLuc contains the proviral NL-Rluc DNA cloned into pUC18 at the PvuII site. The NL-RLuc virus was prepared by transfection of 293T cells with the plasmid pNLRLuc. Transfections were performed using the LipofectAMINE PLUS kit from Invitrogen (Carlsbad, Calif.) according to the manufacturer and the virus generated was titered in MT-2 cells. For susceptibility analyses, the titrated virus was used to infect MT-2 cells in the presence of compound, and after 5 days of incubation, cells were processed and quantitated for virus growth by the amount of expressed luciferase. Assay media was RPMI 1640 supplemented with 10% heat inactivated fetal bovine serum (FBS), 100 units/ml penicillin G/100 units/ml streptomycin, 10 mM HEPES buffer pH 7.55 and 2 mM L-glutamine. The results from at least 2 experiments were used to calculate the EC50 values. Luciferase was quantitated using the Dual Luciferase kit from Promega (Madison, Wis.). Susceptibility of viruses to compounds was determined by incubation in the presence of serial dilutions of the compound. The 50% effective concentration (EC50) was calculated by using the exponential form of the median effect equation where (Fa)=1/[1+(ED50/drug conc.)^m] (Johnson V A, Byington R T. Infectivity Assay. In Techniques in HIV Research. ed. Aldovini A, Walker B D. 71-76. New York: Stockton Press.1990). Activity equal to A refers to a compound having an EC50≤100 nM, while B and C denote compounds having an EC50 between 100 nM and 1 uM (B) or >1 uM (C).

The mark [1] stands for this setting: Human immunodeficiency virus 1, MT2, 120 h, read-out: Activity.
[2] abbreviates: Human immunodeficiency virus 1, MT2, 120 h, read-out: EC50 μM.

Structures are written as SMILES. Where two headings read alike, the source gives them in different places.

For the molecule `Cc1nc(C)c([C@H](OC(C)(C)C)C(=O)O)c(N2CCC(C)(C)CC2)c1-c1ccc2c(c1)CCN(Cc1cc(Cl)ccc1F)C2` [Compound 42, (S)-2-(tert-butoxy)-2-(5-(2-(5-chloro-2-fluorobenzyl)-1,2,3,4-tetrahydroisoquinolin-6-yl)-4-(4,4-dimethylpiperidin-1-yl)-2,6-dimethylpyridin-3-yl)acetic acid], the EC50 under setting [1] was below 0.1 µM.
Still for that read-out and setting: then `Cc1nc(C)c([C@H](OC(C)(C)C)C(=O)O)c(N2CCC(C)(C)CC2)c1-c1ccc2c(c1)CCN(Cc1cc(F)cc(Cl)c1)C2` [Compound 43, (S)-2-(tert-butoxy)-2-(5-(2-(3-chloro-5-fluorobenzyl)-1,2,3,4-tetrahydroisoquinolin-6-yl)-4-(4,4-dimethylpiperidin-1-yl)-2,6-dimethylpyridin-3-yl)acetic acid], with below 0.1 µM.
Take `Cc1nc(C)c([C@H](OC(C)(C)C)C(=O)O)c(N2CCC(C)(C)CC2)c1-c1ccc2c(c1)CCN(Cc1c(F)ccc(F)c1F)C2` [Compound 44, (S)-2-(tert-butoxy)-2-(4-(4,4-dimethylpiperidin-1-yl)-2,6-dimethyl-5-(2-(2,3,6-trifluorobenzyl)-1,2,3,4-tetrahydroisoquinolin-6-yl)pyridin-3-yl)acetic acid]: the EC50 under setting [1] was below 0.1 µM.
Consider `Cc1nc(C)c([C@H](OC(C)(C)C)C(=O)O)c(N2CCC(C)(C)CC2)c1-c1ccc2c(c1)CCN(Cc1cc(F)ccc1Cl)C2` [Compound 45, (S)-2-(tert-butoxy)-2-(5-(2-(2-chloro-5-fluorobenzyl)-1,2,3,4-tetrahydroisoquinolin-6-yl)-4-(4,4-dimethylpiperidin-1-yl)-2,6-dimethylpyridin-3-yl)acetic acid], for which the EC50 was below 0.1 µM under setting [1] and 0.003 µM under setting [2].
For `Cc1cc(F)cc(CN2CCc3cc(-c4c(C)nc(C)c([C@H](OC(C)(C)C)C(=O)O)c4N4CCC(C)(C)CC4)ccc3C2)c1` [Compound 46, (S)-2-(tert-butoxy)-2-(4-(4,4-dimethylpiperidin-1-yl)-5-(2-(3-fluoro-5-methylbenzyl)-1,2,3,4-tetrahydroisoquinolin-6-yl)-2,6-dimethylpyridin-3-yl)acetic acid], under setting [1], the EC50 is below 0.1 µM.
As for `Cc1ccc(F)cc1CN1CCc2cc(-c3c(C)nc(C)c([C@H](OC(C)(C)C)C(=O)O)c3N3CCC(C)(C)CC3)ccc2C1` [Compound 47, (S)-2-(tert-butoxy)-2-(4-(4,4-dimethylpiperidin-1-yl)-5-(2-(5-fluoro-2-methylbenzyl)-1,2,3,4-tetrahydroisoquinolin-6-yl)-2,6-dimethylpyridin-3-yl)acetic acid], the EC50 under setting [1] was below 0.1 µM.
Still for that read-out and setting: then `Cc1ccc(F)c(CN2CCc3cc(-c4c(C)nc(C)c([C@H](OC(C)(C)C)C(=O)O)c4N4CCC(C)(C)CC4)ccc3C2)c1F` [Compound 48, (S)-2-(tert-butoxy)-2-(5-(2-(2,6-difluoro-3-methylbenzyl)-1,2,3,4-tetrahydroisoquinolin-6-yl)-4-(4,4-dimethylpiperidin-1-yl)-2,6-dimethylpyridin-3-yl)acetic acid], with below 0.1 µM.
For the molecule `Cc1nc(C)c([C@H](OC(C)(C)C)C(=O)O)c(N2CCC(C)(C)CC2)c1-c1ccc2c(c1)CCN(Cc1cc(F)c(F)cc1F)C2` [Compound 49, (S)-2-(tert-butoxy)-2-(4-(4,4-dimethylpiperidin-1-yl)-2,6-dimethyl-5-(2-(2,4,5-trifluorobenzyl)-1,2,3,4-tetrahydroisoquinolin-6-yl)pyridin-3-yl)acetic acid], under setting [1], the EC50 was below 0.1 µM.
Same read-out and setting: under `Cc1nc(C)c([C@H](OC(C)(C)C)C(=O)O)c(N2CCC(C)(C)CC2)c1-c1ccc2c(c1)CCN(Cc1c(F)cccc1F)C2` [Compound 50, (S)-2-(tert-butoxy)-2-(5-(2-(2,6-difluorobenzyl)-1,2,3,4-tetrahydroisoquinolin-6-yl)-4-(4,4-dimethylpiperidin-1-yl)-2,6-dimethylpyridin-3-yl)acetic acid] stands below 0.1 µM.
On to `Cc1cccc(F)c1CN1CCc2cc(-c3c(C)nc(C)c([C@H](OC(C)(C)C)C(=O)O)c3N3CCC(C)(C)CC3)ccc2C1` [Compound 51, (S)-2-(tert-butoxy)-2-(4-(4,4-dimethylpiperidin-1-yl)-5-(2-(2-fluoro-6-methylbenzyl)-1,2,3,4-tetrahydroisoquinolin-6-yl)-2,6-dimethylpyridin-3-yl)acetic acid], for which the EC50 runs as follows: under setting [1], below 0.1 µM; under setting [2], 0.003 µM.
Turning to `Cc1ccc(C(F)(F)F)cc1CN1CCc2cc(-c3c(C)nc(C)c([C@H](OC(C)(C)C)C(=O)O)c3N3CCC(C)(C)CC3)ccc2C1` [Compound 52, (S)-2-(tert-butoxy)-2-(4-(4,4-dimethylpiperidin-1-yl)-2,6-dimethyl-5-(2-(2-methyl-5-(trifluoromethyl)benzyl)-1,2,3,4-tetrahydroisoquinolin-6-yl)pyridin-3-yl)acetic acid], the EC50 (NL-RLuc virus in MT-2 cells, 5 days of incubation, luciferase, at least 2 experiments, read-out: Activity) was below 0.1 µM.
For the molecule `Cc1nc(C)c([C@H](OC(C)(C)C)C(=O)O)c(N2CCC(C)(C)CC2)c1-c1ccc2c(c1)CCN(Cc1ccc(Cl)cc1Cl)C2` [Compound 53, (S)-2-(tert-butoxy)-2-(5-(2-(2,4-dichlorobenzyl)-1,2,3,4-tetrahydroisoquinolin-6-yl)-4-(4,4-dimethylpiperidin-1-yl)-2,6-dimethylpyridin-3-yl)acetic acid], the EC50 under setting [1] is below 0.1 µM.
On the same count and under the same terms, under `Cc1cccc(CN2CCc3cc(-c4c(C)nc(C)c([C@H](OC(C)(C)C)C(=O)O)c4N4CCC(C)(C)CC4)ccc3C2)c1F` [Compound 54, (S)-2-(tert-butoxy)-2-(4-(4,4-dimethylpiperidin-1-yl)-5-(2-(2-fluoro-3-methylbenzyl)-1,2,3,4-tetrahydroisoquinolin-6-yl)-2,6-dimethylpyridin-3-yl)acetic acid] stands below 0.1 µM; under `Cc1nc(C)c([C@H](OC(C)(C)C)C(=O)O)c(N2CCC(C)(C)CC2)c1-c1ccc2c(c1)CCN(Cc1ccccc1Cl)C2` [Compound 55, (S)-2-(tert-butoxy)-2-(5-(2-(2-chlorobenzyl)-1,2,3,4-tetrahydroisoquinolin-6-yl)-4-(4,4-dimethylpiperidin-1-yl)-2,6-dimethylpyridin-3-yl)acetic acid], below 0.1 µM; under `Cc1nc(C)c([C@H](OC(C)(C)C)C(=O)O)c(N2CCC(C)(C)CC2)c1-c1ccc2c(c1)CCN(Cc1ccc(Cl)cc1)C2` [Compound 56, (S)-2-(tert-butoxy)-2-(5-(2-(4-chlorobenzyl)-1,2,3,4-tetrahydroisoquinolin-6-yl)-4-(4,4-dimethylpiperidin-1-yl)-2,6-dimethylpyridin-3-yl)acetic acid], below 0.1 µM.
Still for that read-out and setting: then `Cc1cc(C)c(CN2CCc3cc(-c4c(C)nc(C)c([C@H](OC(C)(C)C)C(=O)O)c4N4CCC(C)(C)CC4)ccc3C2)c(C)c1` [Compound 57, (S)-2-(tert-butoxy)-2-(4-(4,4-dimethylpiperidin-1-yl)-2,6-dimethyl-5-(2-(2,4,6-trimethylbenzyl)-1,2,3,4-tetrahydroisoquinolin-6-yl)pyridin-3-yl)acetic acid], with below 0.1 µM; and `Cc1nc(C)c([C@H](OC(C)(C)C)C(=O)O)c(N2CCC(C)(C)CC2)c1-c1ccc2c(c1)CCN(Cc1c(F)cc(F)cc1F)C2` [Compound 58, (S)-2-(tert-butoxy)-2-(4-(4,4-dimethylpiperidin-1-yl)-2,6-dimethyl-5-(2-(2,4,6-trifluorobenzyl)-1,2,3,4-tetrahydroisoquinolin-6-yl)pyridin-3-yl)acetic acid], with below 0.1 µM.
Regarding `Cc1nc(C)c([C@H](OC(C)(C)C)C(=O)O)c(N2CCC(C)(C)CC2)c1-c1ccc2c(c1)CCN(Cc1ccc(C(C)C)cc1)C2` [Compound 59, (S)-2-(tert-butoxy)-2-(4-(4,4-dimethylpiperidin-1-yl)-5-(2-(4-isopropylbenzyl)-1,2,3,4-tetrahydroisoquinolin-6-yl)-2,6-dimethylpyridin-3-yl)acetic acid], the EC50 by setting is: under setting [1], below 0.1 µM; under setting [2], 0.058 µM.
Take `CCc1ccc(CN2CCc3cc(-c4c(C)nc(C)c([C@H](OC(C)(C)C)C(=O)O)c4N4CCC(C)(C)CC4)ccc3C2)cc1` [Compound 60, (S)-2-(tert-butoxy)-2-(4-(4,4-dimethylpiperidin-1-yl)-5-(2-(4-ethylbenzyl)-1,2,3,4-tetrahydroisoquinolin-6-yl)-2,6-dimethylpyridin-3-yl)acetic acid]: the EC50 under setting [1] was below 0.1 µM.
On the same count and under the same terms, then `Cc1nc(C)c([C@H](OC(C)(C)C)C(=O)O)c(N2CCC(C)(C)CC2)c1-c1ccc2c(c1)CCN(Cc1cccc(C#N)c1)C2` [Compound 61, (S)-2-(tert-butoxy)-2-(5-(2-(3-cyanobenzyl)-1,2,3,4-tetrahydroisoquinolin-6-yl)-4-(4,4-dimethylpiperidin-1-yl)-2,6-dimethylpyridin-3-yl)acetic acid], with below 0.1 µM.

The values are drawn from patent publication US10189816B2, “Substituted pyridines as inhibitors of human immunodeficiency virus replication” (priority 2015, dated 2019).
